Test results from ChEMBL document CHEMBL5096215, “Design, synthesis and antitumor efficacy evaluation of a series of novel β-elemene-based macrocycles” (Bioorg Med Chem, 2022).

Columns and labels:
[1] = system: A549; assay: Antiproliferative activity against human A549 cells assessed as inhibition of cell growth at 50 uM measured after 48 hrs by CCK8 assay relative to control; assay type: functional
[2] = Antiproliferative activity against human U-87 MG cells assessed as inhibition of cell growth at 50 uM measured after 48 hrs by CCK8 assay relative to control; assay type: functional, U-87MG ATCC
[3] = system: HCT-116; assay: Antiproliferative activity against human HCT-116 cells assessed as inhibition of cell growth measured after 48 hrs by CCK8 assay relative to control; assay type: functional, cell-based; conditions: HCT-116, 48 h
[4] = system: PC-3; assay: Antiproliferative activity against human PC-3 cells assessed as inhibition of cell growth at 50 uM measured after 48 hrs by CCK8 assay relative to control; assay type: functional
[5] = system: PC-3; assay: Antiproliferative activity against human PC-3 cells assessed as inhibition of cell growth measured after 48 hrs by CCK8 assay relative to control; assay type: functional, cell-based; conditions: PC-3, 48 h
[6] = system: U-251; assay: Antiproliferative activity against human U-251 cells assessed as inhibition of cell growth measured after 48 hrs by CCK8 assay relative to control; assay type: functional, cell-based; conditions: U-251, 48 h
[7] = system: HCT-116; assay: Antiproliferative activity against human HCT-116 cells assessed as inhibition of cell growth at 50 uM measured after 48 hrs by CCK8 assay relative to control; assay type: functional
[8] = system: U-251; assay: Antiproliferative activity against human U-251 cells assessed as inhibition of cell growth at 50 uM measured after 48 hrs by CCK8 assay relative to control; assay type: functional
[9] = system: A549; assay: Antiproliferative activity against human A549 cells assessed as inhibition of cell growth measured after 48 hrs by CCK8 assay relative to control; assay type: functional, cell-based; conditions: A549, 48 h
[10] = Antiproliferative activity against human U-87 MG cells assessed as inhibition of cell growth measured after 48 hrs by CCK8 assay relative to control; assay type: functional, cell-based, U-87MG ATCC
[11] = system: HCT-116; assay: Potency index, […] for antiproliferative activity against human HCT-116 cells assessed as inhibition of cell growth measured after 48 hrs by CCK8 assay; assay type: functional
[12] = system: A549; assay: Potency index, […] for antiproliferative activity against human A549 cells assessed as inhibition of cell growth measured after 48 hrs by CCK8 assay; assay type: functional
[13] = system: PC-3; assay: Potency index, […] for antiproliferative activity against human PC-3 cells assessed as inhibition of cell growth measured after 48 hrs by CCK8 assay; assay type: functional
[14] = Potency index, […] for antiproliferative activity against human U-87 MG cells assessed as inhibition of cell growth measured after 48 hrs by CCK8 assay; assay type: functional, U-87MG ATCC
[15] = system: U-251; assay: Potency index, […] for antiproliferative activity against human U-251 cells assessed as inhibition of cell growth measured after 48 hrs by CCK8 assay; assay type: functional

Row | IC50 [3] [µM] | IC50 [5] [µM] | IC50 [6] [µM] | IC50 [9] [µM] | Compound | inhibition at 50 µM [1] [%] | inhibition at 50 µM [2] [%] | inhibition at 50 µM [4] [%] | inhibition at 50 µM [7] [%] | inhibition at 50 µM [8] [%] | IC50 [10] [µM] | Ratio IC50 [11] | Ratio IC50 [12] | Ratio IC50 [13] | Ratio IC50 [14] | Ratio IC50 [15]
1 | 782 | 276 | 181 | 227 | C=C[C@]1(C)CC[C@@H](C(=C)C)C[C@H]1C(=C)C | < 20 | < 20 | < 20 | < 20 | < 20 | 266 | – | – | – | – | –
2 | 17.6 | 38.6 | 23 | 44.8 | C=C[C@]1(C)CC[C@@H]2C[C@H]1C(=C)CN(C)CCN(C)Cc1cccc(c1)CN(C)CCN(C)CC2=C | 60.7 | < 20 | 68.8 | 94.8 | 98.5 | – | 20 | 5 | 5 | 5 | 5
